According to US10023615B2, “Efficient transport into white blood cells” (priority 2008, dated 2018):
Square brackets hold non-standard residues; d marks the D form. Ends that are not written are not given here.

How the values were obtained:
[1] = system: TNBS induced colitis; assay: TNBS induced colitis (IBD study); format: in vivo
Experimental: b) Constitution of Test Groups and Dose Levels • The table below lists the experimental groups comprising the study.
c) Test Procedures • Colitis was induced by administration of TNBS dissolved in 50% Ethanol • All animals were then treated with doses of XG-102 in the range of 0.1 to 1000 μg/kg, […], as a single or repeated daily doses (see above).
d) Observations and Examinations • i) Clinical Signs • Throughout the duration of the above experiment, careful clinical examinations were carried out and recorded. Observations included changes external appearance, e.g. of the skin, fur, eyes, mucous membranes, occurrence of secretions and excretions (e.g. diarrhea), and autonomic activity. Changes in gait, posture and response to handling, as well as the presence of bizarre behavior, tremors, convulsions, sleep and coma were also noted. • ii) Body Weights • Determination of individual body weight of animals was made on a daily basis. • iii) Clinical Assessment of Colitis • Body weight, stool consistency and bleeding per rectum were all recorded daily and served as the parameters of disease severity score:
• iv) Gross Pathology of the Colon • On the last day of the experiment, animals were euthanized and the colon was removed for gross pathology evaluation according to the following score: […]

[2] = system: liver and lymph nodes; assay: FITC-XG-102 and FITC-D-TAT localization in liver and lymph nodes; format: in vivo, Sprague Dawley rat; settings: 1 mg/kg i.v., 6 h post-injection
Text: FIG. 22A and FIG. 22B: 22A: FITC-XG-102 (SEQ ID NO: 233) localization in the liver. Three cellular fields of FITC-XG-102-labelled cells isolated from liver. From left to right, FITC-labelled XG-102, corresponding DAPI nuclear stain and merge of both images. […] Typicall Kupfer cell shape and nucleus can be differentiated from hepatocytes by their shape. Small and triangle in Kupfer cells in contrast to big exagonal, well organized hepatocytes. Obj 63; bar, 20 μm. 22B: FITC-D-TAT (SEQ ID NO: 4) localization in the liver. Two cellular fields of FITC-D-TAT-labelled cells isolated from liver. From left to right, FITC-labelled XG-102, corresponding DAPI nuclear stain and merge of both images. […] Typicall Kupfer cell shape and nucleus can be differentiated from hepatocytes by their shape. Small and triangle in Kupfer cells in contrast to big exagonal, well organized hepatocytes. Obj 63; bar, 20 μm.
(§1) FIG. 23A and FIG. 23B: 23A: FITC-XG-102 (SEQ ID NO: 233) localization in lymph nodes. Cellular field of FITC-XG-102-labelled cells isolated from lymph nodes. Upper panels from left to right: the composite image is organized with one cellular field stained with FITC-XG-102 (left), Dapi for nuclear stain (middle) and the corresponding merged image (right). In the lower panels, a zoomed cell cluster of each image is illustrated. […] The absence of FITC staining in the lymphoid follicles allows distinguishing from the medullary corde and cortex area. Medullary zone seems to have incorporated the FITC-XG-102, composed in majority by macrophages. Obj 10; bar, 50 μm.
as §1, with “23B:” for “FIG. 23A and FIG. 23B:”, “FITC-D-TAT” for “23A: FITC-XG-102”, “4)” for “233)”, “FITC-D-TAT-labelled” for “FITC-XG-102-labelled”, “FITC-D-TAT” for “FITC-XG-102”, “FITC-D-TAT,” for “FITC-XG-102,”
Female Sprague Dawley rat was injected i.v. in the tail with either 1 mg/kg of FITC-XG102 (SEQ ID NO:233) or 1 mg/kg FITC-D-TAT (SEQ ID NO:4). Rats were sacrified 6 h post-injection using a lethal dose of sodium pentobarbital (150 mg/kg i.p.). For histological analysis and during narcosis, rats were perfused through the heart with 4% paraformaldehyde (PFA) in PBS. Organs (liver and lymph nodes) were cryoprotected in sucrose (30% in PBS), frozen using liquid isopentane and kept for further cryostat sectioning. Sections of 14 μm were incubated for 5 min in PBS before Hoechst staining for 2 min at RT (1 μg/ml). […]

[3] = system: Monocytes (CD14); assay: Flow cytometry of FITC-transporter content in primary human white blood cells: monocytes; format: cell-based; settings: 1 uM, 30 min, 37° C.
Text: (§2) Primary human white blood cells (WBC) were obtained from whole blood after red blood cell lysis. […] Cells containing D-TAT-FITC and r3-L-TAT-FITC were finally analysed by flow cytometry to measure their respective transporter content.

[4] = system: Neutrophils (CD15); assay: Flow cytometry of FITC-transporter content in primary human white blood cells: neutrophils; format: cell-based; settings: 1 uM, 30 min, 37° C.
Text: as §2

[5] = system: Lymphocytes T (CD3); assay: Flow cytometry of FITC-transporter content in primary human white blood cells: lymphocytes T; format: cell-based; settings: 1 uM, 30 min, 37° C.
Text: as §2

[6] = system: Lymphocytes B (CD19); assay: Flow cytometry of FITC-transporter content in primary human white blood cells: lymphocytes B; format: cell-based; settings: 1 uM, 30 min, 37° C.
Text: as §2

[7] = system: U937 lymphoma cells; assay: Uptake (internalization) of FITC-labeled TAT derived transporter constructs in U937 cells, fluorescence plate reader; format: cell-based; settings: 10 μM, U937, Lymphoma, 24 h
Experimental: Cells were plated into poly-DL-lysine coated dishes at a concentration of 1×10^6 cells/ml. Plates were then incubated for 24 h at 37° C., 5% CO2, and 100% relative humidity prior to the addition of a known concentration of peptide. After peptide addition, the cells were incubated 30 min, 1, 6 or 24 h at 37° C., 5% CO2, and 100% relative humidity. Cells were then washed twice with an acidic buffer (Glycin 0.2 M, NaCl 0.15 M, pH 3.0) in order to remove the cell-surface adsorbed peptide (see Kameyama et al., (2007), Biopolymers, 88, 98-107). […] The cell wash using an acidic buffer was thus employed to remove the cell-surface adsorbed peptides. […] Cells were broken by the addition of the RIPA lysis buffer. The relative amount of internalized peptide was then determined by fluorescence after background substraction and protein content normalization. • The steps are thus: 1. […] Analysis of peptide internalization with a fluorescence plate reader • f) Cell Culture and Peptide Treatment • (1) The 6 well culture plates are coated with 3 ml of Poly-D-Lys (Sigma P9011; 25 μg/ml in PBS), the 24 well plates with 600 μl and the 96 well plates with 125 μl and incubated for 4 h at 37° C., CO2 5% and 100% relative humidity. • (2) After 4 hours the dishes were washed twice with 3.5 ml PBS, 700 μl or 150 μl PBS for the 6, 24 or 96 well plates, respectively. • (3) The cells were plated into the dishes in 2.4 ml medium (RPMI) at plating densities of 1′000′000 cells/ml for suspension cells. After inoculation, the plates were incubated at 37° C., 5% CO2 and 100% relative humidity for 24 hours prior to the addition of the peptide. Adherent cells should be at a density of 90-95% the day of treatment and were plated in DMEM :
• (4) The cells were treated with the desired concentration of FITC labeled peptide (stock solution at a concentration of 10 mM in H2O). • (5) Following peptide addition, the cells were incubated 0 to 24 hours (e.g. 30 min, 1, 6 or 24 hours) at 37° C., CO2 5% and 100% relative humidity. • Acidic Wash and Cellular Extracts: • (6) The extracts were cooled on ice. • Suspension cells (or cells, which don attach well to the dish): • Transfer the cells in ? […] To recover the maximum of cells, wash the dish with 1 ml of PBS. • Harvest the cells 2 min at 2400 rpm max. • Suspend the cells in 1 ml cold PBS. • Transfer the cells into a coated “Eppendorf tube” (coated with 1 ml of poly D-Lys for 4 hours and washed twice with 1 ml PBS). • Wash three times with 1 ml of cold acidic wash buffer and centrifuge 2 min at 2400 rpm max. Beware of the spreading of the cells in the “eppendorf”. • Wash twice with 1 ml cold PBS to neutralize. • Add 50 μl of lysis RIPA Buffer. • Incubate 30 min-1 h on ice with agitation. • Adherent Cells: • Wash three times with 3 ml, 1 ml or 200 μl (for 6, 24 or 96 well plates, respectively) of cold acidic wash buffer. Beware of the cells who detach from the dish. • Wash twice with 1 ml cold PBS (for 6, 24 or 96 well plates, respectively) to neutralize. • Add 50 μl of lysis RIPA buffer. • Incubate 30 min-1 h on ice with agitation. • Scrap the cells with a cold scrapper. The 24 and 96 well plates were directly centrifuged at 4000 rpm at 4° for 15 min to remove the cellular debris. Then the supernatants (100 or 50 ml respectively for the 24 or 96 well plates) were directly transferred in a dark 96 well plated.

[8] = system: U937 cells; assay: Intracellular concentration of transporter constructs subsequent to uptake into U937 cells; format: cell-based; settings: U937 cells, 10 μM construct
Experimental: 9. Determination of Intracellular Concentration of Specific Transporter Constructs Subsequent to Uptake (Internalization) of these Peptides into U937 Cells • According to a further experiment, the concentration of specific transporter constructs subsequent to uptake (internalization) of these peptides into U937 cells were determined.

[9] = system: HL-60 cell line (Leukemia); assay: Time dependant internalization of FITC-labeled TAT derived transporter constructs into HL-60 cells; format: cell-based; settings: 10 μM; 30 min, 1, 6 or 24 hours
Experimental: FIG. 3: depicts the results of the time dependant internalization (uptake) of FITC-labeled TAT derived transporter constructs into cells of the HL-60 cell line. […] HL-60 cells were incubated 30 min, 1, 6 or 24 hours with […] of the TAT-derivative transporters. The cells were then washed twice with an acidic buffer (0.2 M Glycin, 0.15 M NaCl, pH 3.0) and twice with PBS. Cells were broken by the addition of RIPA lysis buffer. The relative amount of internalized peptide was then determined by reading the fluorescence intensity (Fusion Alpha plate reader; PerkinElmer) of each extract followed by background substraction and protein content normalization. […]

[10] = system: dissociated cortical primary neurons; assay: Confocal microscopy of FITC-labeled TAT derivative transporters in cortical primary neurons; format: cell-based, rat; settings: 500 nM, 24 hours
Experimental: 8.4 Internalization Experiments and Analysis • The time dependant internalization (uptake) of FITC-labeled TAT derived transporter constructs into cells of the HL-60 cell line was carried out with materials and methods as described above. • Briefly, HL-60 cells were incubated 30 min, 1, 6 or 24 hours with 10 μM of the TAT-derivative transporters. The cells were then washed twice with an acidic buffer (0.2 M Glycin, 0.15 M NaCl, pH 3.0) and twice with PBS. Cells were broken by the addition of RIPA lysis buffer. The relative amount of internalized peptide was then determined by reading the fluorescence intensity (Fusion Alpha plate reader; PerkinElmer) of each extract followed by background substraction and protein content normalization. […] The dissociated cortical primary neurons from P2 Sprague Dawley rats were cultured 12 days in neurobasal medium before exposure 24 hours to 500 nM of the FITC-labeled • TAT derivative transporters. The cells were washed five times with PBS on ice and then mounted in fluorsave mounting medium without prior fixation. Acquisitions were performed on LSM510 metaconfocal microscope (Zeiss). Images were processed with LSM510 software and mounted using Adobe photoshop. Visualization by confocal microscopy of labeling with 500 nM FITC-transporters (A: green). Nuclei were stained by Hoechst (B: blue).

## O=C(O)c1cc(/N=N/c2ccc(S(=O)(=O)Nc3ccccn3)cc2)ccc1O [Sulfasalazine, reference compound]
[1]; any dose, route or time schedule (single dose or daily dose)
  clinical score: reduction in the clinical score
[1]; end of the study
  gross pathology score: effective in reducing the gross pathology completely

## FITC-XG-102: FITC-labelled XG-102 (SEQ ID NO: 233) ([dD][dQ][dS][dR][dP][dV][dQ][dP][dF][dL][dN][dL][dT][dT][dP][dR][dK][dP][dR][dP][dP][dR][dR][dR][dQ][dR][dR][dK][dK][dR]G; not fully specified (N-terminus, C-terminus); also: FITC label, site not given here)
[2]
  localization in lymph nodes: decorates subcapsular sinus macrophages and constitutive migrating alveolar macrophages
  localization in the liver: efficiently decorates Kupfer cells in contrast to hepatocytes which only show a background staining level

## FITC-βA-rKKRrQRRr [r3-L-TAT-FITC]
[3]
  percentage of cells gated, lower left quadrant: 40.77%
  percentage of cells gated, lower right quadrant: 36.24%
  percentage of cells gated, upper left quadrant: 6.34%
  percentage of cells gated, upper right quadrant: 16.65%
[4]
  percentage of cells gated, lower left quadrant: 49.75%
  percentage of cells gated, lower right quadrant: 24.76%
  percentage of cells gated, upper left quadrant: 11.74%
  percentage of cells gated, upper right quadrant: 13.75%
[5]
  percentage of cells gated, lower left quadrant: 50.36%
  percentage of cells gated, lower right quadrant: 20.04%
  percentage of cells gated, upper left quadrant: 20.64%
  percentage of cells gated, upper right quadrant: 8.96%
[6]
  percentage of cells gated, lower left quadrant: 61.92%
  percentage of cells gated, lower right quadrant: 8.48%
  percentage of cells gated, upper left quadrant: 27.83%
  percentage of cells gated, upper right quadrant: 1.76%

## RKKRRQRRR (Description of sequence trafficking sequence L-TAT (s1a) (see Table 1)) [reference compound]
[7]
  uptake (internalization): significantly lower uptake
[8]; 2 h
  intracellular concentration of transporter construct subsequent to uptake: 1.20
[8]; 4 h
  intracellular concentration of transporter construct subsequent to uptake: 1.38
[8]; 6 h
  intracellular concentration of transporter construct subsequent to uptake: 1.07
[8]; 24 h
  intracellular concentration of transporter construct subsequent to uptake: 0.5
[9]
  time dependant internalization (uptake): doesn't accumulate over a period of 24 hours

## rRRQrRKKr [r3-L-TATi]
[7]
  uptake (internalization): most efficient
[9]
  time dependant internalization (uptake): less efficient but still suitable
[10]
  internalization seen by confocal microscopy: internalized into the cytoplasm of the non stressed neurons
